Assays:
[1] = system: cell line derived from Lewis lung carcinoma (LLC); test: Effect of suppressing invasion of cancer cells (CytoSelect invasion assay kit); type: cell-based; conditions: sample 0.001% by mass 24 h, then atmospheric dust 500 μg/mL 6 h + 18 h, fluorescence relative to control without dust = 1, dust + water = 1.67
Experimental: The effect of the inositol derivative on suppressing the invasion of cancer in a cell line derived from Lewis lung carcinoma (LLC, JCRB Cell Bank) was measured under the following conditions. A CytoSelect invasion assay kit manufactured by Cell Biolabs, Inc. was used for a test. The LLC cells were seeded in a chamber plate for invasion tests attached to the above-mentioned invasion assay kit so that the concentration was 100000 cells/mL using a culture medium in which a Ham F10 medium and an L15 medium (both manufactured by Sigma-Aldrich) were mixed at the ratio of 3:7 (volume ratio), and cultured for 24 hours under the conditions of 37° C. and 5% CO2. Next, an aqueous solution of the inositol derivative or an aqueous solution of myo-inositol was added to the culture medium so that the final concentration of the inositol derivative or myo-inositol was 0.001% by mass, or water (pure water) was added to the culture medium, and culturing was further performed for 24 hours. […] Thereafter, the cells were stained using the above-mentioned invasion assay kit, and the fluorescence intensity at an excitation wavelength of 480 nm/an absorption wavelength of 570 nm was measured with a microplate reader i-Control (manufactured by Tecan Group Ltd.). […]

[2] = system: cell line derived from Lewis lung carcinoma (LLC); test: Effect (1) of suppressing proliferation of cancer cells accelerated by atmospheric dust (WST-8); type: cell-based; conditions: sample 0.001% by mass 24 h, then atmospheric dust 500 μg/mL 48 h, WST-8 absorbance 450 nm relative to control without dust = 1, dust + water = 2.31
Experimental: The effect of the inositol derivative on suppressing the proliferation of cancer cells in a cell line derived from Lewis lung carcinoma (LLC, JCRB Cell Bank) was measured under the following conditions. The LLC cells were seeded at the seeding density of 50000 cells/cm^2 in a culture medium in which a Ham F 10 medium and an L15 medium (both manufactured by Sigma-Aldrich) were mixed at the ratio of 3:7 (volume ratio), and cultured for 24 hours under the conditions of 37° C. and 5% CO2. Next, an aqueous solution of the inositol derivative or an aqueous solution of myo-inositol was added to the culture medium so that the final concentration of the inositol derivative or myo-inositol was 0.001% by mass, or water (pure water) was added to the culture medium, and culturing was further performed for 24 hours. Thereafter, 0.1 mL of a DMSO solution of atmospheric dust (NIST 1648a) was added per 100 mL of the culture medium so that the final concentration of the atmospheric dust in the culture medium was 500 μg/mL, and culturing was further performed for 48 hours in the same conditions as above. Thereafter, the culture medium was replaced with a medium containing 10% (V/V) of WST-8 of Nacalai Tesque Inc., and after further culturing for 3 hours, the absorbance at the wavelength of 450 nm was measured with a microplate reader i-Control (manufactured by Tecan Group Ltd.). […]

O[C@H]1[C@H](O)[C@@H](O)[C@H](O)[C@@H](O)[C@H]1O [myo-Inositol, myo-inositol]
Relative cell invasion [1]: 1.53 | Relative cell proliferation amount [2]: 2.03
